Each compound was assayed against T1, calcium receptor (CasR) (Homo sapiens, UniProt P41180) (assay: FLIPR Assay for Evaluating the Potency and Selectivity of Test Compounds). Settings: HEK 293 cells expressing CasR; 30 minutes pre-incubation; stimulation by 1.7 mM Ca2+; read 42 seconds after stimulation.
T1 construct: expressed in transfected cells; host or cells: HEK 293
T1 sequence (P41180 20-1078): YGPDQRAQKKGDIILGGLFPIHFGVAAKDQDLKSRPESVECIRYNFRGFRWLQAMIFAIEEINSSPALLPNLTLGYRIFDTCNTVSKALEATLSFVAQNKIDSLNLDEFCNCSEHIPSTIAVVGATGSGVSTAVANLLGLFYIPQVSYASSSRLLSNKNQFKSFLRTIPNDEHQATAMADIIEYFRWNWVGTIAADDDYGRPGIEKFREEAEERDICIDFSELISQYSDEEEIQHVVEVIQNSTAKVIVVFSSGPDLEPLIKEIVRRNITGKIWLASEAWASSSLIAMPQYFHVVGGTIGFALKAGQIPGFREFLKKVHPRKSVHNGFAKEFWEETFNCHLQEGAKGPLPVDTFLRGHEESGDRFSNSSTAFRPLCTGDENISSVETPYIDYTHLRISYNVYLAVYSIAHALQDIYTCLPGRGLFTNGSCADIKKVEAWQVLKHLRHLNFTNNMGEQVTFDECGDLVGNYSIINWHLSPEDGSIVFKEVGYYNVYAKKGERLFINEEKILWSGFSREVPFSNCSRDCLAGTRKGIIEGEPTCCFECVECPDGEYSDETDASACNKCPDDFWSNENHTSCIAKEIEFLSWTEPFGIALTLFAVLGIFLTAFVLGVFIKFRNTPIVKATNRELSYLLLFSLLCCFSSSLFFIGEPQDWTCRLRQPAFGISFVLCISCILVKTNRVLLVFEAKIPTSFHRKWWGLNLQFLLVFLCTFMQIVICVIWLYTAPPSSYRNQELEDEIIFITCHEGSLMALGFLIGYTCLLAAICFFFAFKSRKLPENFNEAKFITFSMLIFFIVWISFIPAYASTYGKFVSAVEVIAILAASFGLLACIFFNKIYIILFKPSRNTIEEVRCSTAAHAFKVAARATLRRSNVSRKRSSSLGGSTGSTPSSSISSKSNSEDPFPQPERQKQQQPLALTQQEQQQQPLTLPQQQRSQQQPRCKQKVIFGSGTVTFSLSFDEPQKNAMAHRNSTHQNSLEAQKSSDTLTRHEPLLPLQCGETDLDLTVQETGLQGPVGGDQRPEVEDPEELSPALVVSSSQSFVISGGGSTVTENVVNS
Format: cell-based
Description: FLIPR Assay for Evaluating the Potency and Selectivity of Test Compounds
Human kidney cell (HEK 293) expressing the calcium receptor (CasR) are used to detect antagonists of the receptor using Fluorometric imaging plate reader (FLIPR, Molecular Devices, Sunnyvale Calif.). Receptor activation by extracellular calcium results in the release of calcium from intracellular stores into the cytosol. A fluorescent indicator (Fluo-4) is internalized by the cells from growth media and interacts with calcium released into the cytosol to provide a means of quantifying intracellular Ca^2+ levels and receptor agonism/antagonism. Fluorescence intensity is detected by the FLIPR CCD camera and traced as a function of time. Potential antagonists are identified by their ability to decrease this fluorescent response.
Prior to the addition of test compound cells are washed with a 10 mM HEPES buffer solution. The test compound, for example the compound of Example 1, is added at various doses (from 1 µM to 3 nM) and pre-incubated with cells for 30 minutes followed by stimulation of the CasR by the addition of 1.7 mM Ca^2+. IC50 values are based on the ability of the cells to inhibit the Ca^2+ induced increase in intracellular Ca^2+. Fluorescence signal is read 42 seconds after the stimulation of the CasR by the addition of 1.7 mM Ca^2+.
The following table provides FLIPR IC50 data for the specified Examples. The IC50s are reported as micromolar concentration with n being the number of times the particular compound was assayed.

SMILES | IC50
COc1ccccc1CCn1c(-c2cscn2)nc2ccnc(C(F)(F)F)c2c1=O [Example 60, 3-(2-methoxyphenethyl)-2-(thiazol-4-yl)-5-(trifluoromethyl)pyrido[4,3-d]pyrimidin-4(3H)-one] | 23.2 µM
CS(=O)(=O)Nc1cccnc1-c1nc2ccnc(C(F)(F)F)c2c(=O)n1CCc1ccccc1 [Example 64, N-(2-(4-oxo-3-phenethyl-5-(trifluoromethyl)-3,4-dihydropyrido[4,3-d]pyrimidin-2-yl)pyridin-3-yl)methanesulfonamide] | 61.8 µM
CC(Cc1ccccc1F)n1c(-c2cscn2)nc2ccnc(C(F)(F)F)c2c1=O (stereo not drawn) [Example 65, 3-(1-(2-fluorophenyl)propan-2-yl)-2-(thiazol-4-yl)-5-(trifluoromethyl)pyrido[4,3-d]pyrimidin-4(3H)-one] | 10.5 µM
CC(C)CCn1c(-c2ncccc2O)nc2ccnc(C(F)(F)F)c2c1=O [Example 66, 2-(3-hydroxypyridin-2-yl)-3-isopentyl-5-(trifluoromethyl)pyrido[4,3-d]pyrimidin-4(3H)-one] | 36.2 µM
O=c1c2c(C(F)(F)F)nccc2nc(-c2ncccc2O)n1CC1CCOCC1 [Example 67, 2-(3-hydroxypyridin-2-yl)-3-((tetrahydro-2H-pyran-4-yl)methyl)-5-(trifluoromethyl)pyrido[4,3-d]pyrimidin-4(3H)-one] | > 1 µM
O=c1c2c(C(F)(F)F)nccc2nc(-c2ncccc2O)n1CCC1CCOCC1 [Example 68, 2-(3-hydroxypyridin-2-yl)-3-(2-(tetrahydro-2H-pyran-4-yl)ethyl)-5-(trifluoromethyl)pyrido[4,3-d]pyrimidin-4(3H)-one] | > 1 µM
COc1ccc(F)c(CCn2c(-c3ncccc3O)nc3ccnc(C(F)(F)F)c3c2=O)c1 [Example 69, 3-(2-fluoro-5-methoxyphenethyl)-2-(3-hydroxypyridin-2-yl)-5-(trifluoromethyl)pyrido[4,3-d]pyrimidin-4(3H)-one] | 66.9 µM
COc1cccc(CCn2c(-c3ncccc3O)nc3ccnc(C(F)(F)F)c3c2=O)c1F [Example 70, 3-(2-fluoro-3-methoxyphenethyl)-2-(3-hydroxypyridin-2-yl)-5-(trifluoromethyl)pyrido[4,3-d]pyrimidin-4(3H)-one] | 61.9 µM
O=c1c2c(C(F)(F)F)nccc2nc(-c2ncccc2O)n1C1CCCCC1 [Example 74, 3-cyclohexyl-2-(3-hydroxypyridin-2-yl)-5-(trifluoromethyl)pyrido[4,3-d]pyrimidin-4(3H)-one] | 47.8 µM
Nc1scnc1-c1nc2ccnc(C(F)(F)F)c2c(=O)n1CCc1ccccc1 [Example 78, 2-(5-aminothiazol-4-yl)-3-phenethyl-5-(trifluoromethyl)pyrido[4,3-d]pyrimidin-4(3H)-one] | 9.83 µM
O=c1c2c(C(F)(F)F)nccc2nc(-c2ccccc2C(F)(F)F)n1CCC1CCCCC1 [Example 81, 3-(2-cyclohexylethyl)-5-(trifluoromethyl)-2-(2-(trifluoromethyl)phenyl)pyrido[4,3-d]pyrimidin-] | 7.89 µM

Second part, the compound after the results:

IC50 | SMILES
0.72 µM | COc1ccccc1CCn1c(-c2ccccc2O)nc2ccnc(C(F)(F)F)c2c1=O [Example 55, 3-(2-methoxyphenethyl)-2-(2-hydroxyphenyl)-5-(trifluoromethyl)pyrido[4,3-d]pyrimidin-4(3H)-one]
1.54 µM | O=c1c2c(C(F)(F)F)nccc2nc(-c2cscn2)n1CCc1ccccc1F [Example 56, 3-(2-fluorophenethyl)-2-(thiazol-4-yl)-5-(trifluoromethyl)pyrido[4,3-d]pyrimidin-4(3H)-one]
1.67 µM | C[C@H](Cc1ccccc1)n1c(C2CCCC2)nc2ccnc(C(F)(F)F)c2c1=O [Example 57, (R)-2-cyclopentyl-3-(1-phenylpropan-2-yl)-5-(trifluoromethyl)pyrido[4,3-d]pyrimidin-4(3H)-one]
4.68 µM | CC(C)c1nc2ccnc(C(F)(F)F)c2c(=O)n1CCc1ccccc1 [Example 58, 2-isopropyl-3-phenethyl-5-(trifluoromethyl)pyrido[4,3-d]pyrimidin-4(3H)-one]
7.79 µM | O=c1c2c(C(F)(F)F)nccc2nc(C2CCCC2)n1CCc1ccccc1 [Example 59, 2-cyclopentyl-3-phenethyl-5-(trifluoromethyl)pyrido[4,3-d]pyrimidin-4(3H)-one]
0.5 µM | O=c1c2c(C(F)(F)F)nccc2nc(-c2cscn2)n1CCC1CCCCC1 [Example 61, 3-(2-cyclohexylethyl)-2-(thiazol-4-yl)-5-(trifluoromethyl)pyrido[4,3-d]pyrimidin-4(3H)-one]
4.63 µM | N#Cc1ccccc1-c1nc2ccnc(C(F)(F)F)c2c(=O)n1CCC1CCCCC1 [Example 62, 2-(3-(2-cyclohexylethyl)-4-oxo-5-(trifluoromethyl)-3,4-dihydropyrido[4,3-d]pyrimidin-2-yl)benzonitrile]
0.77 µM | Nc1cccnc1-c1nc2ccnc(C(F)(F)F)c2c(=O)n1CCc1ccccc1 [Example 63, 2-(3-aminopyridin-2-yl)-3-phenethyl-5-(trifluoromethyl)pyrido[4,3-d]pyrimidin-4(3H)-one]
0.42 µM | N#Cc1ccccc1-c1nc2cccc(C(F)(F)F)c2c(=O)n1CCc1ccccc1F [Example 71, 2-(3-(2-fluorophenethyl)-4-oxo-5-(trifluoromethyl)-3,4-dihydroquinazolin-2-yl)benzonitrile]
0.94 µM | O=C(Nc1cccnc1-c1nc2ccnc(C(F)(F)F)c2c(=O)n1CCc1ccccc1F)C(F)(F)F [Example 72, N-(2-(3-(2-fluorophenethyl)-4-oxo-5-(trifluoromethyl)-3,4-dihydropyrido[4,3-d]pyrimidin-2-yl)pyridin-3-yl)-2,2,2-trifluoroacetamide]
0.2 µM | C[C@H](Cc1ccccc1)n1c(-c2ncccc2NC(=O)C(F)(F)F)nc2ccnc(C(F)(F)F)c2c1=O [Example 73, (R)-2,2,2-trifluoro-N-(2-(4-oxo-3-(1-phenylpropan-2-yl)-5-(trifluoromethyl)-3,4-dihydropyrido[4,3-d]pyrimidin-2-VI)pyridin-3-VI)acetamide]
6.3 µM | O=c1c2c(C(F)(F)F)nccc2nc(-c2ncccc2C(F)(F)F)n1CCc1ccccc1 [Example 76, 3-Phenethyl-5-trifluoromethyl-2-(3-trifluoromethyl-pyridin-2-yl)-3H-pyrido[4,3-d]pyrimidin-4-one]
0.7 µM | C[C@H](Cc1ccccc1)n1c(-c2ncccc2C(F)(F)F)nc2ccnc(C(F)(F)F)c2c1=O [Example 77]
0.39 µM | O=c1c2c(C(F)(F)F)nccc2nc(-c2ccccc2C(F)F)n1CCc1ccccc1 [Example 79, 2-(2-(difluoromethyl)phenyl)-3-phenethyl-5-(trifluoromethyl)pyrido[4,3-d]pyrimidin-4(3H)-one]
0.3 µM | O=c1c2c(C(F)(F)F)nccc2nc(-c2ncccc2C(F)F)n1CCc1ccccc1 [Example 80, 2-(3-(difluoromethyl)pyridin-2-yl)-3-phenethyl-5-(trifluoromethyl)pyrido[4,3-d]pyrimidin-4(3H)-one]
2.53 µM | O=c1c2c(C(F)(F)F)nccc2nc(-c2ncccc2C(F)(F)F)n1CCC1CCCCC1 [Example 82, 3-(2-cyclohexylethyl)-5-(trifluoromethyl)-2-(3-(trifluoromethyl)pyridin-2-yl)pyrido[4,3-d]pyrimidin-4(3H)-one]
